Reference: patent publication US4177269A, “Novel 17-esters of 17α-hydroxy gestogens, compositions containing such compounds, processes for their preparation and methods of treatment therewith” (Aktiebolaget Leo, priority 1976, dated 1979)

System: Hepatome AH 130
Test: Hepatome AH 130 tumour growth inhibition in rats
Assay type: in vivo, Sprague-Dawley rats
Conditions: one i.p. injection, result in words
Excerpt: LD50 is the dose that causes a 50 percent lethality of the animals, and ED50 is the dose that causes a 50 percent reduction of tumour size.
The experimental design and the interpretation of the results are in accordance with the standards set by the CCNSC (Cancer Chemotherpy Reports, January 1959 and December 1962).
Experimental animals: Sprague-Dawley rats.
Tumour implant: 5 × 10^6 tumour cells i.p.
Therapy: One injection i.p. on the day following implanta-
Termination: The animals are killed on the 8th day.
Evaluation: Weights of tumours of test animals are compared
with those of control animals.

Row | Compound | antitumour activity
1 | CC(=O)[C@@]1(OC(=O)CCCOC(=O)CCCc2ccc(N(CCCl)CCCl)cc2)CC[C@H]2[C@@H]3C=C(Cl)C4=CC(=O)[C@@H]5C[C@@H]5[C@]4(C)[C@H]3CC[C@@]21C [3:24, 6-chloro-17α-[4-(4-(4-(N,N-bis(2-chloroethyl)amino)phenyl)butanoyloxy)butanoyloxy]-1α,2α-methylenepregna-4,6-diene-3,20-dione] | exhibit antitumour activity
2 | CC(=O)[C@@]1(OC(=O)CCCOC(=O)[C@@H](N)Cc2ccc(N(CCCl)CCCl)cc2)CC[C@H]2[C@@H]3CCC4=CC(=O)CC[C@]4(C)[C@H]3CC[C@@]21C [3:13, 17-[4-((2S)-2-amino-3-(4-(N,N-bis(2-chloroethyl)amino)phenyl)propanoyloxy)butanoyloxy]pregn-4-ene-3,20-dione] | exhibit antitumour activity
3 | CC(=O)[C@@]1(OC(=O)COC(=O)Cc2ccc(N(CCCl)CCCl)cc2)CC[C@H]2[C@@H]3C=C(C)C4=CC(=O)CC[C@]4(C)[C@H]3CC[C@@]21C [3:17, 17α-[4-(N,N-bis(2-chloroethyl)amino)phenylacetoxyacetoxy]-6-methylpregna-4,6-diene-3,20-dione] | exhibit antitumour activity
4 | CC(=O)[C@@]1(OC(=O)COC(=O)c2ccc(Cl)c(N(CCCl)CCCl)c2)CC[C@H]2[C@@H]3C[C@H](F)C4=CC(=O)CC[C@]4(C)[C@H]3CC[C@@]21C [3:25, 17α-[4-chloro-3-(N,N-bis(2-chloroethyl)amino)benzoyloxyacetoxy]-6α-fluoropregn-4-ene-3,20-dione] | exhibit antitumour activity
5 | CC(=O)[C@@]1(OC(=O)CNC(=O)c2ccc(C)c(N(CC(C)Cl)CC(C)Cl)c2)CC[C@H]2[C@@H]3C[C@H](C)C4=CC(=O)CC[C@]4(C)[C@H]3CC[C@@]21C (stereo partly drawn) [4:2, 17α-/3-(N,N-bis(2-chloropropyl)amino)-4-methylbenzoylaminoacetoxy/-6α-methylpregn-4-ene-3,20-dione] | exhibit antitumour activity
6 | CC(=O)[C@@]1(OC(=O)COC(=O)CCOc2ccc(N(CCCl)CCCl)cc2)CC[C@H]2[C@@H]3CCC4=CC(=O)CC[C@]4(C)[C@H]3CC[C@@]21C [3:26, 17α-[3-(4-(N,N-bis(2-chloroethyl)amino)phenoxy)propionyloxyacetoxy]pregn-4-ene-3,20-dione] | exhibit antitumour activity
7 | CC(=O)[C@@]1(OC(=O)CCCNC(=O)C(C)(C)c2ccc(N(CCCl)CCCl)cc2)CC[C@H]2[C@@H]3CCC4=CC(=O)CC[C@@H]4[C@H]3CC[C@@]21C [6:2, 17α-/4-(2-(4-(N,N-bis(2-chloroethyl)amino)phenyl)-2-methylpropanoylamino)butyanoyloxy/-19-norpregn-4-ene-3,20-dione] | exhibit antitumour activity
8 | C=C1C[C@H]2[C@@H]3C=C(Cl)C4=CC(=O)CC[C@]4(C)[C@H]3CC[C@]2(C)[C@@]1(OC(=O)COC(=O)Nc1ccc(N(CCCl)CCCl)cc1OC)C(C)=O [5:2, 6-chloro-17α-/4-(N,N-bis(2-chloroethyl)amino)-2-methoxyphenylcarbamoyloxyacetoxy/-16-methylenepregna-4,6-diene-3,20-dione] | exhibit antitumour activity
9 | CC(=O)[C@@]1(OC(=O)COC(=O)[C@@H](N)Cc2cccc(N(CCCl)CCCl)c2)CC[C@H]2[C@@H]3CCC4=CC(=O)CC[C@]4(C)[C@H]3CC[C@@]21C [3:19, 17-[(2S)-2-amino-3-(3-(N,N-bis(2-chloroethyl)amino)phenyl)propanoyloxyacetoxy]pregn-4-ene-3,20-dione] | exhibit antitumour activity
10 | CC(=O)[C@@]1(OC(=O)CCCCNC(=O)c2ccc(C)c(N(CCBr)CCBr)c2)CC[C@H]2[C@@H]3C[C@H](F)C4=CC(=O)CC[C@]4(C)[C@H]3CC[C@@]21C [6:3, 17α-/5-(3-(N,N-bis(2-bromoethyl)amino)-4-methylbenzoylamino)pentanoyloxy/-6α-fluoropregn-4-ene-3,20-dione] | exhibit antitumour activity
